In patent US12691108B2, “Methods for treating vascular malformations” (Deciphera Pharmaceuticals, LLC, priority 2019, dated 2026):

Columns and labels:
[1] = tested on: WT TIE2 and TIE2 mutants; assay: Mutant TIE2-transfected HUVEC Western blot assay: TIE2 phosphorylation; format: cell-based, human; conditions: 100 nM, 4 hours, HUVECs with WT TIE2 and TIE2 mutants, presence or absence of ANGPT1 stimulation
Experimental: (§1) HUVECs used for in vitro work were kindly provided by Dr. Lauri Eklund (Oulu, Finland). Briefly, cells were grown in endothelial cell growth media (Tebu-Bio, Boechout, Belgium) containing 10% fetal calf serum (Sigma-Aldrich, Diegem, Belgium) at 37 degrees Celsius, 5% CO2, and 95% humidity. Cells were allowed to expand until reaching 90-95% confluence at which point they were subcultured or harvested for assay use.
(§2) HUVEC cells (2.5×10^5 cells/well) stably expressing WT or TIE2 mutants R849W, L914F, R1099*, Y897C/R915C, Y897F/F915L, or T1105N/T1106P were added to a 6-well plate coated with attachment factor solution (Tebu-Bio, Boechout, Belgium) in 2 mL of endothelial cell growth media (Tebu-Bio, Boechout, Belgium) containing 10% fetal calf serum (Sigma-Aldrich, Diegem, Belgium). Cells were subsequently incubated overnight at 37 degrees Celsius, 5% CO2, and 95% humidity. The next day test compound or DMSO was added to the wells (0.068% final DMSO concentration). The plates were then incubated for 4 hours at 37 degrees Celsius, 5% CO2, and 95% humidity. Next, cells were stimulated with 1 μg/mL ANGPT1 for 15 minutes. Cells were lysed and pTIE2, TIE2, b-actin, pAKT (S473), pAKT (T308), AKT, pSTAT1, and STAT1 were detected by Western blot.

[2] = tested on: AKT; assay: Mutant TIE2-transfected HUVEC Western blot assay: AKT phosphorylation downstream of TIE2; format: cell-based, human; conditions: 100 nM, 4 hours, HUVECs with WT TIE2 and TIE2 mutants, presence or absence of ANGPT1 stimulation
Experimental: as §1, §2

[3] = tested on: STAT1; assay: Mutant TIE2-transfected HUVEC Western blot assay: STAT1 phosphorylation downstream of TIE2; format: cell-based, human; conditions: 100 nM, 4 hours, HUVECs with WT TIE2 and TIE2 mutants, presence or absence of ANGPT1 stimulation
Experimental: as §1, §2

[4] = tested on: TIE2 mutant HUVECs; assay: Mutant TIE2-transfected HUVEC cell morphology assay; format: cell-based, human; conditions: 100 nM, imaged at 24 and 48 hours, TIE2 mutant HUVECs compared with WT TIE2 HUVECs
Experimental: as §1
HUVEC cells (5×10^5 cells/plate) stably expressing WT or TIE2 mutants R849W, L914F, R1099*, Y897C/R915C, Y897F/F915L, or T1105N/T1106P were added to a 10 cm plate coated with attachment factor solution (Tebu-Bio, Boechout, Belgium) in 6 mL of endothelial cell growth media (Tebu-Bio, Boechout, Belgium) containing 10% fetal calf serum (Sigma-Aldrich, Diegem, Belgium). Cells were then incubated for 2 days at 37 degrees Celsius, 5% CO2, and 95% humidity. Next, test compound or DMSO was added to the wells (0.068% final DMSO concentration). The plates were then further incubated for 48 hours at 37 degrees Celsius, 5% CO2, and 95% humidity. The cells were imaged by microscopy at 24 hours and 48 hours after addition of compound.

[5] = tested on: TIE2 mutant HUVECs; assay: Mutant TIE2-transfected gene expression assay (quantitative PCR); format: cell-based, human; conditions: 100 nM, 48 hours, normalized to GAPDH
Experimental: as §1
HUVEC cells (5×10^5 cells/plate) stably expressing WT or TIE2 mutants R849W, L914F, R1099*, Y897C/R915C, Y897F/F915L, or T1105N/T1106P were added to a 10 cm plate coated with attachment factor solution (Tebu-Bio, Boechout, Belgium) in endothelial cell growth media (Tebu-Bio, Boechout, Belgium) containing 10% fetal calf serum (Sigma-Aldrich, Diegem, Belgium). Cells were then incubated for 2 days at 37 degrees Celsius, 5% CO2, and 95% humidity. Next, test compound or DMSO was added to the wells (0.068% final DMSO concentration). The plates were then further incubated for 48 hours at 37 degrees Celsius, 5% CO2, and 95% humidity. RNA was extracted by collecting the cells into TriPure isolation reagent (Sigma-Aldrich, Diegem, Belgium). Subsequently, cDNA from extracted RNA was synthesized using RevertAid H Minus first strand cDNA synthesis kit (Thermo Fischer Scientific, Merelbeke, Belgium). Quantitative PCR was carried out using LightCycler480 SYBRGreen master mix and a LightCycler 480 II instrument (Roche, Switzerland). cDNA for ANGPT2, PDGFB, ADAMTS1, ADAMTS9, PLAT, and PLAU were quantified and normalized to the expression from the housekeeping gene GAPDH.

[6] = tested on: TIE2 mutant expressing HUVECs; assay: Mutant TIE2-transfected fibronectin assay (extracellular matrix); format: cell-based, human; conditions: 100 nM, 48 hours, TIE2 mutant HUVECs versus WT TIE2
Experimental: as §1
HUVEC cells (3×10^5 cells/well) stably expressing WT or TIE2 mutants R849W, L914F, R1099*, Y897C/R915C, Y897F/F915L, or T1105N/T1106P were added to a 6-well plate coated with attachment factor solution (Tebu-Bio, Boechout, Belgium) in endothelial cell growth media (Tebu-Bio, Boechout, Belgium) containing 10% fetal calf serum (Sigma-Aldrich, Diegem, Belgium). Cells were then incubated for 24 hours at 37 degrees Celsius, 5% CO2, and 95% humidity. Next, test compound or DMSO was added to the wells (0.068% final DMSO concentration). The plates were then further incubated for 48 hours at 37 degrees Celsius, 5% CO2, and 95% humidity. Cells were switched into 2% FBS for overnight. Intracellular fibronectin levels were lower in transfectants, thus cellular lysates were collected and used as controls. […]

[7] = tested on: HUVEC cells expressing mutant TIE2-L914F (VM lesions in matrigel plugs); assay: Venous malformation mouse model, diet from day of injection (Day 0); format: in vivo, athymic nude male mice
Experimental: (§3) For the in vivo model, fresh HUVEC transfectants were made using lentiviral infection. […]. Subsequently, 25,000 HUVECs/well (LGC Standards sarl, France) were grown on a 24-well plate for 24 hrs, infected with 500 μl of the lentivirus-TIE2-L914F mix, then cultured for another 48 hrs, collected, then frozen.
(§4) To evaluate the effect of the compound on vascular malformation (VM) lesion development in vivo, HUVEC cells (2.5×10^6) expressing mutant TIE2-L914F were cultured, detached, then resuspended in 200 μL matrigel (Corning). The mixture was injected subcutaneously into the dorsal back of athymic nude male mice, aged 5-7 weeks (Charles River). […] At post-implant day 7 or 16, mice were euthanized and the skin surrounding each matrigel plug was excised, then pinned flat onto a styrofoam board and fixed in 10% neutral buffered formalin solution (Sigma-Aldrich, Diegem, Belgium) overnight. Matrigel plugs were removed from the murine skin, dehydrated in a series of graded alcohol, and embedded in paraffin. Paraffin-embedded plugs were then cut into 5 μm sections for histological analysis. After de-paraffinization in xylene and rehydration in a series of degraded alcohol, sections were subjected to heat-induced antigen-retrieval in 0.1 M citrate buffer, pH 6.0, with or without 0.05% Tween-20. For immunohistochemical staining, sections were blocked with 3% H2O2 (Sigma-Aldrich, Diegem, Belgium), incubated with a biotinylated antibody against the human endothelial cell marker Ulex europaeus Agglutinin 1 (UEA1) (Vector labs, Brussels, Belgium), followed by a horseradish peroxidase-conjugated streptavidin secondary antibody (GE Healthcare, Diegem, Belgium), then in a DAB solution (Vector labs, Brussels, Belgium). Sections were counterstained with hematoxylin and mounted with VectaMount permanent mounting medium (Vector labs, Brussels, Belgium). For immunofluorescent staining (IF), sections were incubated with primary antibodies that recognize UEA1, the smooth muscle layer marker SMA (clone 1A4, Sigma-Aldrich, Diegem, Belgium), phosphorylated-TIE2(Y772) (Bioke, Leiden, Netherlands), or total TIE2 (Santa Cruz, Heidelberg, Germany). Secondary antibodies used were conjugated to Alexa488-, Alexa649-, or CY5-fluorophores. Slides were mounted with VectaShield Hardset mounting medium with DAPI (Vector labs, Brussels, Belgium). Images were acquired via a Panoramic 250 Flash III digital slide scanner (3D Histech, Hungary) and visualized with Caseviewer version 2.2 software (3D Histech, Hungary). The average vessel area was quantitated by making snapshots at a 20× objective of at least 5 areas of each matrigel plug and measuring the area of a least 6 UEA+ vessels each using ImageJ software.
To evaluate the overall vascular morphology within the explants, wholemount IF of vessels within matrigel plugs was done. After excising skins with matrigel plugs attached and flat-fixing them overnight in 10% neutral buffered formalin, an approximately 100-200 μm piece of the plug was sliced off and washed in 1×PBS. The pieces were blocked overnight in 1% BSA (v/v) (Gibco) and 0.3% Triton-X100 (Sigma-Aldrich, Diegem, Belgium) in 1×PBS, then incubated in UEA1 for at least 72 hours, followed by in CY5-streptavidin secondary antibody (Vector labs, Brussels, Belgium). Pieces were then post-fixed in 10% NBF for 10 min, then mounted with Fluormount G (Thermo Fischer Scientific, Merelbeke, Belgium). Z-stack images were acquired with a Zeiss cell observer spinning disk confocal microscope (Zeiss, Germany); 3-D projections of Z-stacks were generated by the AriVis4D software. […] Non-vascularized UEA+ cells were also present but the expression is reduced. Also conducted were comparisons of treated and untreated VM lesions at day 16 with wild type and L914F TIE2 mutants in which treatment began at day 0 (FIG. 18A-D) or day 7 (FIG. 19A-C).

[8] = tested on: HUVEC cells expressing mutant TIE2-L914F (VM lesions in matrigel plugs); assay: Venous malformation mouse model, previously established VM lesions, diet from post-implant day 7; format: in vivo, athymic nude male mice
Experimental: as §3
as §4, with “For immunofluorescent staining (IF), sections were incubated with primary antibodies that recognize UEA1, the smooth muscle layer marker SMA (clone 1A4, Sigma-Aldrich, Diegem, Belgium), phosphorylated-TIE2(Y772) (Bioke, Leiden, Netherlands), or total TIE2 (Santa Cruz, Heidelberg, Germany). Secondary antibodies used were conjugated to Alexa488-, Alexa649-, or CY5-fluorophores. Slides were mounted with VectaShield Hardset mounting medium with DAPI (Vector labs, Brussels, Belgium). Images were acquired via a Panoramic 250 Flash III digital slide scanner (3D Histech, Hungary) and visualized with Caseviewer version 2.2 software (3D Histech, Hungary).” left out, “software. […]” for “software.”

[9] = diet equivalent to 10 mg/kg from Day 0, post-implant day 7
[10] = diet equivalent to 10 mg/kg from Day 0, post-implant day 7, versus control diet
[11] = diet equivalent to 10 mg/kg from Day 0, post-implant day 16

For CNC(=O)c1cc(Oc2ccc(NC(=O)Nc3cc(C(C)(C)C)nn3-c3ccc4ncccc4c3)c(F)c2)ccn1 [compound of Formula I, rebastinib], the “inhibition of TIE2 phosphorylation” value [1] was “complete inhibition”, the “inhibition of AKT Ser473 phosphorylation” value [2] was “complete inhibition” and the “inhibition of AKT Thr308 phosphorylation” value [2] was “complete inhibition”. The “inhibition of STAT1 phosphorylation” value [3] was “complete inhibition”, the cellular morphology [4] was “restored cellular morphology” and the “expression of ADAMTS1 RNA” value [5] was “decreased expression”. For the same compound, the “expression of ADAMTS9 RNA” value [5] was “decreased expression”, the “expression of ANGPT2 RNA” value [5] was “increased expression” and the “expression of PDGFB RNA” value [5] was “increased expression”. For the same compound, the “expression of PLAT RNA” value [5] was “decreased expression”, the “expression of PLAU RNA” value [5] was “decreased expression” and the “fibronectin levels in the extracellular matrix” value [6] was “restored fibronectin levels”. The “gross appearance of blood-filled vascular channels (macroscopic view of lesions)” value ([7]; diet equivalent to 10 mg/kg from Day 0, compared to untreated mutants) was “more controlled and less severe”, the “overall vascular morphology (wholemount IF)” value [7, 9] was “more normal, tubular vessels were seen” and the “smooth muscle cell/pericyte coverage (SMA staining)” value [7, 9] was “displayed a few SMA positive cells”. The “average area of vessels within the plugs” value [7, 10] was “drastically less”, the “expression of pTIE2 in ECs” value [7, 10] was “weaker” and the “overall vascular morphology (wholemount IF)” value [7, 11] was “largely normalized”. The “smooth muscle cell/pericyte coverage (SMA+ cells)” value [7, 11] was “surrounded more consistently by SMA+ cells”, the “vessel size in lesions” value ([7]; diet equivalent to 10 mg/kg from Day 0, post-implant day 16, versus control diet and untreated) was “much smaller vessels” and the “pTIE2 in ECs” value ([7]; diet equivalent to 10 mg/kg from Day 0, post-implant day 16, versus untreated) was “drastically reduced”. For the same compound, the VM development ([7]; mice fed compound-infused food) was “reduced VM development”, the “severity of established VMs” value ([8]; diet from post-implant day 7) was “ameliorated the severity of VMs” and the “average vascular area of vessels” value ([8]; diet from post-implant day 7, explants day 16) was “moderately reduced”. The “smooth muscle cell layer coverage” value ([8]; diet from post-implant day 7, explants day 16, versus control diet) was “improved smooth muscle cell layer coverage”.
